# Measurements from PubChem BioAssay AID330 (DTP/NCI, 2004).
# Where “and” joins values, the source holds several entries; their conditions need not be identical. Equal values may be shown once. Inconclusive results and toxic doses are left out.
# Test system: P388 leukemia ip, CD2F1 mice, survival T/C
# Test: NCI In Vivo Anticancer Drug Screen. Data for tumor model P388 Leukemia (intraperitoneal) in CD2F1 (CDF1) mice
# Settings: endpoint: median survival time, higher = longer survival
# Method in brief: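 Mice carrying the transplanted tumor received test compound or vehicle. Survival was recorded in each group, and the value is the treated-group measurement divided by that of the vehicle-treated control group.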
# [1] = dose: 25.0 mg/kg/injection, schedule: Q01DX009 (ip), vehicle: saline with Tween-80
# [2] = dose: 50.0 mg/kg/injection, schedule: Q01DX009 (ip), vehicle: saline with Tween-80
# [3] = dose: 100.0 mg/kg/injection, schedule: Q04DX003 (ip), vehicle: saline with Tween-80
# [4] = dose: 50.0 mg/kg/injection, schedule: Q01DX005 (ip), vehicle: Klucel (hydroxypropylcellulose) (HPC)
# [5] = dose: 100.0 mg/kg/injection, schedule: Q01DX005 (ip), vehicle: Klucel (hydroxypropylcellulose) (HPC)
# [6] = dose: 200.0 mg/kg/injection, schedule: Q01DX005 (ip), vehicle: Klucel (hydroxypropylcellulose) (HPC)
# [7] = dose: 50.0 mg/kg/injection, schedule: Q01DX005 (ip), vehicle: saline with Tween-80
# [8] = dose: 100.0 mg/kg/injection, schedule: Q01DX005 (ip), vehicle: saline with Tween-80
# [9] = dose: 200.0 mg/kg/injection, schedule: Q01DX005 (ip), vehicle: saline with Tween-80
# [10] = dose: 6.25 mg/kg/injection, schedule: Q01DX009 (ip), vehicle: saline with Tween-80
# [11] = dose: 12.5 mg/kg/injection, schedule: Q01DX009 (ip), vehicle: saline with Tween-80
# [12] = dose: 100.0 mg/kg/injection, schedule: Q01DX009 (ip), vehicle: saline with Tween-80
# [13] = dose: 200.0 mg/kg/injection, schedule: Q01DX009 (ip), vehicle: saline with Tween-80
# [14] = dose: 25.0 mg/kg/injection, schedule: Q01DX009 (ip), vehicle: saline
# [15] = dose: 100.0 mg/kg/injection, schedule: Q01DX001 (ip), vehicle: Klucel (hydroxypropylcellulose) (HPC)
# [16] = dose: 200.0 mg/kg/injection, schedule: Q01DX001 (ip), vehicle: Klucel (hydroxypropylcellulose) (HPC)
smiles,measurement,setting,value
COc1cc([C@@H]2c3cc4c(cc3[C@H](OC(C)=O)[C@H]3COC(=O)[C@@H]23)OCO4)cc(OC)c1OC,T/C,[1],118 % of control
same,T/C,"dose: 29.3 mg/kg/injection, schedule: Q04DX003 (ip), vehicle: saline with Tween-80",88 % of control
same,T/C,[2],150 % of control
same,T/C,"dose: 66.0 mg/kg/injection, schedule: Q04DX003 (ip), vehicle: saline with Tween-80",100 % of control
same,T/C,[3],115 % of control
C=C(C)c1nc(N)nc(N(C)C)n1,T/C,[4],100 % of control
same,T/C,[5],102 % of control
same,T/C,[6],100 % of control
C=CCNc1ccc(C)cc1,T/C,"dose: 33.0 mg/kg/injection, schedule: Q01DX009 (ip), vehicle: saline with Tween-80",116 % of control
same,T/C,[2],116 % of control
same,T/C,[3],100 % of control
same,T/C,"dose: 200.0 mg/kg/injection, schedule: Q04DX003 (ip), vehicle: saline with Tween-80",122 % of control
same,T/C,"dose: 400.0 mg/kg/injection, schedule: Q04DX003 (ip), vehicle: saline with Tween-80",90 % of control
COc1ccc2c(c1OC)C(=O)O[C@@H]2[C@H]1c2c(cc3c(c2OC)OCO3)CCN1C,T/C,"dose: 62.5 mg/kg/injection, schedule: Q01DX010 (ip), vehicle: saline",100 % of control
same,T/C,"dose: 125.0 mg/kg/injection, schedule: Q01DX010 (ip), vehicle: saline",95 % of control
CN1CCC2c3c([nH]c4ccccc34)C(C)(C)OC2C1 (stereo not drawn),T/C,"dose: 60.0 mg/kg/injection, schedule: Q01DX005 (ip), vehicle: saline with Tween-80",111 % of control
same,T/C,"dose: 120.0 mg/kg/injection, schedule: Q01DX005 (ip), vehicle: saline with Tween-80",113 % of control
same,T/C,"dose: 240.0 mg/kg/injection, schedule: Q01DX005 (ip), vehicle: saline with Tween-80",118 % of control
COC(=O)c1c(C(N)=O)c(C)n(NC(N)=O)c1C,T/C,[7],117 % of control
same,T/C,[8],107 % of control
same,T/C,[9],108 % of control
CCCCCCCCCCCCCCCC[N+](C)(C)CCBr,T/C,"dose: 3.13 mg/kg/injection, schedule: Q01DX009 (ip), vehicle: saline with Tween-80",109 % of control and 100 % of control
same,T/C,[10],122 % of control and 93 % of control and 103 % of control
same,T/C,[11],115 % of control [middle of 4 runs]
NC(CCSCc1ccccc1)P(=O)(O)O (stereo not drawn),T/C,[7],100 % of control
same,T/C,[8],97 % of control
same,T/C,[9],92 % of control
CC12C=C3C4(CCCC3(O1)c1ccccc12)OCCO4 (stereo not drawn),T/C,[2],96 % of control
same,T/C,[12],102 % of control
same,T/C,[13],99 % of control
COc1cc(OC)c(NC(=S)Nc2cc(C)ccc2OC)cc1Cl,T/C,"dose: 6.25 mg/kg/injection, schedule: Q01DX009 (ip), vehicle: DMSO",94 % of control
same,T/C,"dose: 12.5 mg/kg/injection, schedule: Q01DX009 (ip), vehicle: DMSO",91 % of control
same,T/C,"dose: 25.0 mg/kg/injection, schedule: Q01DX009 (ip), vehicle: DMSO",91 % of control
same,T/C,"dose: 50.0 mg/kg/injection, schedule: Q01DX009 (ip), vehicle: DMSO",91 % of control and 93 % of control
same,T/C,"dose: 100.0 mg/kg/injection, schedule: Q01DX009 (ip), vehicle: DMSO",87 % of control
O=S(/N=C/c1ccccc1)c1ccc(Cl)cc1 (stereo not drawn),T/C,[2],96 % of control
same,T/C,[12],89 % of control
O=C(Nc1ccccc1)Sc1nnc2c3ccccc3c3ccccc3c2n1,T/C,[2],100 % of control
same,T/C,[12],101 % of control
same,T/C,[13],99 % of control
COC(=O)C12Oc3ccc(-c4ccc5c(c4O)C(=O)C4=CCC(C)C(O)C4(C(=O)OC)O5)c(O)c3C(=O)C1=CCC(C)C2O (stereo not drawn),T/C,"dose: 2.5 mg/kg/injection, schedule: Q01DX009 (ip), vehicle: saline with Tween-80",91 % of control
same,T/C,"dose: 5.0 mg/kg/injection, schedule: Q01DX009 (ip), vehicle: saline with Tween-80",95 % of control
same,T/C,"dose: 10.0 mg/kg/injection, schedule: Q01DX009 (ip), vehicle: saline with Tween-80",88 % of control
C/C(=N\NC(=S)N1CCCC1)c1ncccn1,T/C,"dose: 12.5 mg/kg/injection, schedule: Q04DX003 (ip), vehicle: Klucel (hydroxypropylcellulose) (HPC)",108 % of control
same,T/C,"dose: 25.0 mg/kg/injection, schedule: Q04DX003 (ip), vehicle: Klucel (hydroxypropylcellulose) (HPC)",108 % of control
same,T/C,"dose: 50.0 mg/kg/injection, schedule: Q04DX003 (ip), vehicle: Klucel (hydroxypropylcellulose) (HPC)",112 % of control
Cc1ccc2cccnc2c1NCCCCCNC(C)C,T/C,"dose: 12.5 mg/kg/injection, schedule: Q01DX005 (ip), vehicle: saline with Tween-80",97 % of control
same,T/C,"dose: 25.0 mg/kg/injection, schedule: Q01DX005 (ip), vehicle: saline with Tween-80",100 % of control
same,T/C,[7],100 % of control and 97 % of control
CCCCN(C)C(=S)N/N=C(\C)c1ccccn1,T/C,[10],98 % of control
same,T/C,[11],101 % of control
same,T/C,[1],111 % of control
Cn1nnc2c(Cl)nccc21,T/C,"dose: 100.0 mg/kg/injection, schedule: Q04DX002 (ip), vehicle: saline",105 % of control
same,T/C,"dose: 200.0 mg/kg/injection, schedule: Q04DX002 (ip), vehicle: saline",100 % of control
same,T/C,"dose: 400.0 mg/kg/injection, schedule: Q04DX002 (ip), vehicle: saline",102 % of control
CC1COCCOC(=O)COCC(=O)OCCOCC(C)O1 (stereo not drawn),T/C,"dose: 100.0 mg/kg/injection, schedule: Q04DX003 (ip), vehicle: Klucel (hydroxypropylcellulose) (HPC)",107 % of control
same,T/C,"dose: 200.0 mg/kg/injection, schedule: Q04DX003 (ip), vehicle: Klucel (hydroxypropylcellulose) (HPC)",103 % of control
same,T/C,"dose: 400.0 mg/kg/injection, schedule: Q04DX003 (ip), vehicle: Klucel (hydroxypropylcellulose) (HPC)",93 % of control
CCc1ccc(NCc2ccc(CNc3ccc(CC)cc3)cc2)cc1,T/C,[2],86 % of control
same,T/C,[12],96 % of control
same,T/C,[13],94 % of control
[Cl][Fe]([Cl])([Cl])[Cl].c1ccc(C[n+]2ccccc2)cc1,T/C,"dose: 6.25 mg/kg/injection, schedule: Q01DX009 (ip), vehicle: saline",108 % of control
same,T/C,"dose: 12.5 mg/kg/injection, schedule: Q01DX009 (ip), vehicle: saline",104 % of control
same,T/C,[14],117 % of control
C/C(=N\NC(=O)CCl)C(C)(C)C,T/C,[14],111 % of control
same,T/C,"dose: 50.0 mg/kg/injection, schedule: Q01DX009 (ip), vehicle: saline",109 % of control
same,T/C,"dose: 100.0 mg/kg/injection, schedule: Q01DX009 (ip), vehicle: saline",103 % of control
CC1(CC(=O)O)OC(c2ccccc2)=CC1=O (stereo not drawn),T/C,[15],98 % of control
same,T/C,[16],92 % of control
same,T/C,"dose: 400.0 mg/kg/injection, schedule: Q01DX001 (ip), vehicle: Klucel (hydroxypropylcellulose) (HPC)",92 % of control
CCOC(=O)N1N=C(c2ccccc2)OC2(N3CCOCC3)CCC(C(C)(C)C)CC12 (stereo not drawn),T/C,[4],100 % of control
same,T/C,[5],101 % of control
same,T/C,[6],97 % of control
CN(C)c1ccc(-c2nc3ccccc3s2)c(Cl)c1,T/C,[2],102 % of control
same,T/C,[12],103 % of control
same,T/C,[13],109 % of control
O=C1C=CC(=Nc2cc(Cl)c(O)c(Cl)c2)C=C1Cl,T/C,"dose: 12.5 mg/kg/injection, schedule: Q01DX005 (ip), vehicle: saline",96 % of control
same,T/C,"dose: 25.0 mg/kg/injection, schedule: Q01DX005 (ip), vehicle: saline",100 % of control
same,T/C,"dose: 50.0 mg/kg/injection, schedule: Q01DX005 (ip), vehicle: saline",93 % of control
COc1ccc(C2CC(=O)CC2c2ccc(OC)cc2)cc1 (stereo not drawn),T/C,"dose: 50.0 mg/kg/injection, schedule: Q01DX001 (ip), vehicle: Klucel (hydroxypropylcellulose) (HPC)",99 % of control
same,T/C,[15],100 % of control
same,T/C,[16],100 % of control
CCN(CC)CCNc1ncnc(N)c1C(=C(C)C)c1ccc(Cl)cc1,T/C,[2],87 % of control
